# Laboratory results as given in BindingDB's records for PubMed 38621327 (Hebei University).
# Assays:
# [1] = target: Transcriptional enhancer factor TEF-3 (Homo sapiens, UniProt Q15561); experiment: Inhibition of GST-tagged recombinant TEAD4 (unknown origin) (217 to 434 residues) expressed in Escherichia coli BL21 (DE3) by fluorescence polarization assay
# [2] = Binding affinity to rat heart mitochondria CPT1 assessed as inhibition constant incubated for 3 to 6 mins by Liquid scintillation counting method
# Sequence of Transcriptional enhancer factor TEF-3 (Q15561 whole entry, the tested form may be a part): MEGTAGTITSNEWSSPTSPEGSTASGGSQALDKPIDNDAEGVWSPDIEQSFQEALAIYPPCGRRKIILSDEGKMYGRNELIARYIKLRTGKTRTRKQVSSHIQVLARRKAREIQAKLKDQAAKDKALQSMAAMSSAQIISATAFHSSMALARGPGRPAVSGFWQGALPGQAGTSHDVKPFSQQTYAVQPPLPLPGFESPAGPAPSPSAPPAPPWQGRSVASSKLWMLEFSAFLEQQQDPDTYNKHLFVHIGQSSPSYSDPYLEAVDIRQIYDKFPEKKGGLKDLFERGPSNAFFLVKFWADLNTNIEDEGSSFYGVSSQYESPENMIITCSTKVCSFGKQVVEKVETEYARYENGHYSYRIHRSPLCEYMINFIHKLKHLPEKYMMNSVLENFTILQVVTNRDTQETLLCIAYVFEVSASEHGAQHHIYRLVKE
EC50 [1],Ki [2],SMILES
5.9 µM,,O=C(CCl)c1ccccc1Nc1cccc(C(F)(F)F)c1
,2.8 µM,CCCCCCCCCCCCCCC[C@]1(O)C[C@H](CC(=O)[O-])C[N+](C)(C)C1
